# From patent US20160122320A1, “USEFUL COMBINATIONS OF MONOBACTAM ANTIBIOTICS WITH BETA-LACTAMASE INHIBITORS” (Basilea Pharmaceutica AG, priority 2005, published 2016)
# What was measured:
# Assay in all cases: MIC, NCCLS broth microdilution
# Format in all cases: cell-based
# Acinetobacter sp. J2 = conditions: Acinetobacter baumannii J2; for MIC of antibiotic: antibiotic alone, no inhibitor
# Serratia marcescens S6 = conditions: for MIC of antibiotic: antibiotic alone, no inhibitor
# [1] = test system: Pseudomonas aeruginosa MK1184; conditions: for MIC of antibiotic: antibiotic alone, no inhibitor
# Enterobacter cloacae P99 = conditions: for MIC of antibiotic: antibiotic alone, no inhibitor
# [2] = test system: Klebsiella pneumoniae CF104; conditions: for MIC of antibiotic: antibiotic alone, no inhibitor
# [3] = test system: Pseudomonas aeruginosa 1973E; conditions: for MIC of antibiotic: antibiotic alone, no inhibitor
# Protocol: Antimicrobial activity of the compounds and of their combinations was determined against a selection of organisms according to the standard procedures described by the National Committee for Clinical Laboratory Standards (National Committee for Clinical Laboratory. Standards (2000). Methods for Dilution Antimicrobial Susceptibility Tests for Bacteria That Grow Aerobically-Fifth Edition: Approved Standard M7-A5. NCCLS, Wayne, Pa., USA).
# In all cases the final concentration of DMSO incubated with the bacteria is less than or equal to 1%. […] Plates were incubated overnight at an appropriate temperature (30° C. or 37° C.) and optical densities assessed by eye. The MIC value is defined as the lowest compound concentration completely inhibiting visible growth of the test organism. When combinations between compounds of formula I with compounds of formula II and are evaluated the compounds of formula I are tested in dilution series as described above while the compounds of formula II and III-XIII were present in all wells at a constant concentration of 4 μg/mL each.
# [4] = test system: Stenotrophomonas malthophilia 1AC736; conditions: Stenotrophomonas maltophilia 1AC736; for MIC of antibiotic: antibiotic alone, no inhibitor
# [5] = with clavulanate (clavulanic acid)
compound,measurement,setting,value
CC1C(NC(=O)C(=NOCc2cc(=O)c(O)cn2O)c2cccc(N)n2)C(=O)N1S(=O)(=O)O (stereo not drawn) [Compound 20],MIC of antibiotic,Acinetobacter sp. J2,>32 µg/mL
same,MIC of antibiotic at fixed inhibitor concentration of 4 mg/L,Acinetobacter sp. J2; with 102 and clavulanate,>32 µg/mL
same,MIC of antibiotic at fixed inhibitor concentration of 4 mg/L,Acinetobacter sp. J2; with 206 and clavulanate,>32 µg/mL
same,MIC of antibiotic at fixed inhibitor concentration of 4 mg/L,Acinetobacter sp. J2; with 501,<0.06 µg/mL
same,MIC of antibiotic at fixed inhibitor concentration of 4 mg/L,Acinetobacter sp. J2; [5],>32 µg/mL
same,MIC of antibiotic,Serratia marcescens S6,4 µg/mL
same,MIC of antibiotic at fixed inhibitor concentration of 4 mg/L,Serratia marcescens S6; with 102 and clavulanate,0.5 µg/mL
same,MIC of antibiotic at fixed inhibitor concentration of 4 mg/L,Serratia marcescens S6; with 206 and clavulanate,0.5 µg/mL
same,MIC of antibiotic at fixed inhibitor concentration of 4 mg/L,Serratia marcescens S6; with 501,2 µg/mL
same,MIC of antibiotic at fixed inhibitor concentration of 4 mg/L,Serratia marcescens S6; [5],2 µg/mL
same,MIC of antibiotic,[1],>32 µg/mL
same,MIC of antibiotic at fixed inhibitor concentration of 4 mg/L,[1]; with 102 and clavulanate,8 µg/mL
same,MIC of antibiotic at fixed inhibitor concentration of 4 mg/L,[1]; with 206 and clavulanate,>32 µg/mL
same,MIC of antibiotic at fixed inhibitor concentration of 4 mg/L,[1]; with 501,>32 µg/mL
same,MIC of antibiotic at fixed inhibitor concentration of 4 mg/L,[1]; [5],>32 µg/mL
same,MIC of antibiotic,Enterobacter cloacae P99,>32 µg/mL
same,MIC of antibiotic at fixed inhibitor concentration of 4 mg/L,Enterobacter cloacae P99; with 102 and clavulanate,16 µg/mL
same,MIC of antibiotic at fixed inhibitor concentration of 4 mg/L,Enterobacter cloacae P99; with 206 and clavulanate,16 µg/mL
same,MIC of antibiotic at fixed inhibitor concentration of 4 mg/L,Enterobacter cloacae P99; with 501,>32 µg/mL
same,MIC of antibiotic at fixed inhibitor concentration of 4 mg/L,Enterobacter cloacae P99; [5],>32 µg/mL
same,MIC of antibiotic,[2],>32 µg/mL
same,MIC of antibiotic at fixed inhibitor concentration of 4 mg/L,[2]; with 102 and clavulanate,2 µg/mL
same,MIC of antibiotic at fixed inhibitor concentration of 4 mg/L,[2]; with 206 and clavulanate,4 µg/mL
same,MIC of antibiotic at fixed inhibitor concentration of 4 mg/L,[2]; with 501,16 µg/mL
same,MIC of antibiotic at fixed inhibitor concentration of 4 mg/L,[2]; [5],32 µg/mL
same,MIC of antibiotic,[3],16 µg/mL
same,MIC of antibiotic at fixed inhibitor concentration of 4 mg/L,[3]; with 102 and clavulanate,32 µg/mL
same,MIC of antibiotic at fixed inhibitor concentration of 4 mg/L,[3]; with 206 and clavulanate,16 µg/mL
same,MIC of antibiotic at fixed inhibitor concentration of 4 mg/L,[3]; with 501,16 µg/mL
same,MIC of antibiotic at fixed inhibitor concentration of 4 mg/L,[3]; [5],16 µg/mL
same,MIC of antibiotic,[4],4 µg/mL
same,MIC of antibiotic at fixed inhibitor concentration of 4 mg/L,[4]; with 102 and clavulanate,0.25 µg/mL
same,MIC of antibiotic at fixed inhibitor concentration of 4 mg/L,[4]; with 206 and clavulanate,0.5 µg/mL
same,MIC of antibiotic at fixed inhibitor concentration of 4 mg/L,[4]; with 501,0.25 µg/mL
same,MIC of antibiotic at fixed inhibitor concentration of 4 mg/L,[4]; [5],0.25 µg/mL
"C[C@H]1[C@H](NC(=O)/C(=N\OCc2cc(=O)c(O)cn2O)c2nccc(N)n2)C(=O)N1S(=O)(=O)O [Compound 21, (3S,4S)-3-{(2Z)-2-(4-aminopyrimidin-2-yl)-3-[(1,5-dihydroxy-4-oxo(2-hydropyridyl))methoxy]-3-azaprop-2-enoylamino}-4-methyl-2-oxoazetidinesulfonic acid]",MIC of antibiotic,Acinetobacter sp. J2,>32 µg/mL
same,MIC of antibiotic at fixed inhibitor concentration of 4 mg/L,Acinetobacter sp. J2; with 102 and clavulanate,>32 µg/mL
same,MIC of antibiotic at fixed inhibitor concentration of 4 mg/L,Acinetobacter sp. J2; with 102 and sulbactam,2 µg/mL
same,MIC of antibiotic at fixed inhibitor concentration of 4 mg/L,Acinetobacter sp. J2; with 323 and clavulanate,8 µg/mL
same,MIC of antibiotic at fixed inhibitor concentration of 4 mg/L,Acinetobacter sp. J2; with 323 and sulbactam,2 µg/mL
same,MIC of antibiotic at fixed inhibitor concentration of 4 mg/L,Acinetobacter sp. J2; with 324 and sulbactam,2 µg/mL
same,MIC of antibiotic,Serratia marcescens S6,8 µg/mL
same,MIC of antibiotic at fixed inhibitor concentration of 4 mg/L,Serratia marcescens S6; with 102 and clavulanate,0.5 µg/mL
same,MIC of antibiotic at fixed inhibitor concentration of 4 mg/L,Serratia marcescens S6; with 102 and sulbactam,16 µg/mL
same,MIC of antibiotic at fixed inhibitor concentration of 4 mg/L,Serratia marcescens S6; with 323 and clavulanate,2 µg/mL
same,MIC of antibiotic at fixed inhibitor concentration of 4 mg/L,Serratia marcescens S6; with 323 and sulbactam,2 µg/mL
same,MIC of antibiotic at fixed inhibitor concentration of 4 mg/L,Serratia marcescens S6; with 324 and sulbactam,4 µg/mL
same,MIC of antibiotic,[1],>32 µg/mL
same,MIC of antibiotic at fixed inhibitor concentration of 4 mg/L,[1]; with 102 and clavulanate,16 µg/mL
same,MIC of antibiotic at fixed inhibitor concentration of 4 mg/L,[1]; with 102 and sulbactam,32 µg/mL
same,MIC of antibiotic at fixed inhibitor concentration of 4 mg/L,[1]; with 323 and clavulanate,32 µg/mL
same,MIC of antibiotic at fixed inhibitor concentration of 4 mg/L,[1]; with 323 and sulbactam,8 µg/mL
same,MIC of antibiotic at fixed inhibitor concentration of 4 mg/L,[1]; with 324 and sulbactam,32 µg/mL
same,MIC of antibiotic,Enterobacter cloacae P99,>32 µg/mL
same,MIC of antibiotic at fixed inhibitor concentration of 4 mg/L,Enterobacter cloacae P99; with 102 and clavulanate,32 µg/mL
same,MIC of antibiotic at fixed inhibitor concentration of 4 mg/L,Enterobacter cloacae P99; with 102 and sulbactam,32 µg/mL
same,MIC of antibiotic at fixed inhibitor concentration of 4 mg/L,Enterobacter cloacae P99; with 323 and clavulanate,8 µg/mL
same,MIC of antibiotic at fixed inhibitor concentration of 4 mg/L,Enterobacter cloacae P99; with 323 and sulbactam,8 µg/mL
same,MIC of antibiotic at fixed inhibitor concentration of 4 mg/L,Enterobacter cloacae P99; with 324 and sulbactam,8 µg/mL
same,MIC of antibiotic,[2],>32 µg/mL
same,MIC of antibiotic at fixed inhibitor concentration of 4 mg/L,[2]; with 102 and clavulanate,<0.06 µg/mL
same,MIC of antibiotic at fixed inhibitor concentration of 4 mg/L,[2]; with 102 and sulbactam,2 µg/mL
same,MIC of antibiotic at fixed inhibitor concentration of 4 mg/L,[2]; with 323 and clavulanate,2 µg/mL
same,MIC of antibiotic at fixed inhibitor concentration of 4 mg/L,[2]; with 323 and sulbactam,1 µg/mL
same,MIC of antibiotic at fixed inhibitor concentration of 4 mg/L,[2]; with 324 and sulbactam,4 µg/mL
same,MIC of antibiotic,[3],8 µg/mL
same,MIC of antibiotic at fixed inhibitor concentration of 4 mg/L,[3]; with 102 and clavulanate,8 µg/mL
same,MIC of antibiotic at fixed inhibitor concentration of 4 mg/L,[3]; with 102 and sulbactam,16 µg/mL
same,MIC of antibiotic at fixed inhibitor concentration of 4 mg/L,[3]; with 323 and clavulanate,16 µg/mL
same,MIC of antibiotic at fixed inhibitor concentration of 4 mg/L,[3]; with 323 and sulbactam,32 µg/mL
same,MIC of antibiotic at fixed inhibitor concentration of 4 mg/L,[3]; with 324 and sulbactam,16 µg/mL
same,MIC of antibiotic,[4],8 µg/mL
same,MIC of antibiotic at fixed inhibitor concentration of 4 mg/L,[4]; with 102 and clavulanate,2 µg/mL
same,MIC of antibiotic at fixed inhibitor concentration of 4 mg/L,[4]; with 102 and sulbactam,8 µg/mL
same,MIC of antibiotic at fixed inhibitor concentration of 4 mg/L,[4]; with 323 and clavulanate,2 µg/mL
same,MIC of antibiotic at fixed inhibitor concentration of 4 mg/L,[4]; with 323 and sulbactam,4 µg/mL
same,MIC of antibiotic at fixed inhibitor concentration of 4 mg/L,[4]; with 324 and sulbactam,4 µg/mL
"C[C@H]1[C@H](NC(=O)/C(=N\OCc2cc(=O)c(O)cn2O)c2csc(N)n2)C(=O)N1OCC(=O)O [Compound 22, 2-((3S,4S)-3-{(2Z)-2-(2-amino(1,3-thiazol-4-yl))-3-[(1,5-dihydroxy-4-oxo(2-hydropyridyl))methoxy]-3-azaprop-2-enoylamino}-4-methyl-2-oxoazetidinyloxy)acetic acid]",MIC of antibiotic,Acinetobacter sp. J2,>32 µg/mL
same,MIC of antibiotic at fixed inhibitor concentration of 4 mg/L,Acinetobacter sp. J2; with 102 and clavulanate,4 µg/mL
same,MIC of antibiotic at fixed inhibitor concentration of 4 mg/L,Acinetobacter sp. J2; with 324 and clavulanate,8 µg/mL
same,MIC of antibiotic at fixed inhibitor concentration of 4 mg/L,Acinetobacter sp. J2; with 324 and sulbactam,2 µg/mL
same,MIC of antibiotic,Serratia marcescens S6,0.13 µg/mL
same,MIC of antibiotic at fixed inhibitor concentration of 4 mg/L,Serratia marcescens S6; with 102 and clavulanate,0.25 µg/mL
same,MIC of antibiotic at fixed inhibitor concentration of 4 mg/L,Serratia marcescens S6; with 324 and clavulanate,0.13 µg/mL
same,MIC of antibiotic at fixed inhibitor concentration of 4 mg/L,Serratia marcescens S6; with 324 and sulbactam,0.13 µg/mL
same,MIC of antibiotic,[1],8 µg/mL
same,MIC of antibiotic at fixed inhibitor concentration of 4 mg/L,[1]; with 102 and clavulanate,4 µg/mL
same,MIC of antibiotic at fixed inhibitor concentration of 4 mg/L,[1]; with 324 and clavulanate,4 µg/mL
same,MIC of antibiotic at fixed inhibitor concentration of 4 mg/L,[1]; with 324 and sulbactam,4 µg/mL
same,MIC of antibiotic,Enterobacter cloacae P99,>32 µg/mL
same,MIC of antibiotic at fixed inhibitor concentration of 4 mg/L,Enterobacter cloacae P99; with 102 and clavulanate,8 µg/mL
same,MIC of antibiotic at fixed inhibitor concentration of 4 mg/L,Enterobacter cloacae P99; with 324 and clavulanate,4 µg/mL
same,MIC of antibiotic at fixed inhibitor concentration of 4 mg/L,Enterobacter cloacae P99; with 324 and sulbactam,4 µg/mL
same,MIC of antibiotic,[2],>32 µg/mL
same,MIC of antibiotic at fixed inhibitor concentration of 4 mg/L,[2]; with 102 and clavulanate,0.25 µg/mL
same,MIC of antibiotic at fixed inhibitor concentration of 4 mg/L,[2]; with 324 and clavulanate,0.25 µg/mL
same,MIC of antibiotic at fixed inhibitor concentration of 4 mg/L,[2]; with 324 and sulbactam,4 µg/mL
same,MIC of antibiotic,[3],4 µg/mL
same,MIC of antibiotic at fixed inhibitor concentration of 4 mg/L,[3]; with 102 and clavulanate,4 µg/mL
same,MIC of antibiotic at fixed inhibitor concentration of 4 mg/L,[3]; with 324 and clavulanate,4 µg/mL
same,MIC of antibiotic at fixed inhibitor concentration of 4 mg/L,[3]; with 324 and sulbactam,4 µg/mL
same,MIC of antibiotic,[4],0.5 µg/mL
same,MIC of antibiotic at fixed inhibitor concentration of 4 mg/L,[4]; with 102 and clavulanate,1 µg/mL
same,MIC of antibiotic at fixed inhibitor concentration of 4 mg/L,[4]; with 324 and clavulanate,1 µg/mL
same,MIC of antibiotic at fixed inhibitor concentration of 4 mg/L,[4]; with 324 and sulbactam,1 µg/mL
